Experimental data from PMC12704249, “New Mannich-type arylidenerhodanines as potent inhibitors of AChE and BChE: synthesis, biological evaluation, cytotoxicity and molecular modeling” (RSC Advances, 2025).
Read-outs that look alike come from different tables or passages of the source.

Assays:
BChE = settings: in Fig. 1, cited from earlier work
AChE = settings: in Fig. 1, cited from earlier work
[1] = biological target: T1, AChE derived from Electrophorus electricus (Electrophorus electricus, UniProt O42275); assay: AChE inhibition assay (modified Ellman's colorimetric method, Lineweaver–Burk Ki); format: biochemical, Electrophorus electricus (electric eel); settings: for Ki: 0.1 M Tris–HCl pH 8.0, substrate acetylthiocholine chloride; for Selectivity (BChE/AChE): ratio of BChE Ki to AChE Ki
T1 construct: purchased Sigma-Aldrich (St. Louis, MO, USA)
From the text: Enzyme kinetic parameters were derived by measuring initial velocities at varying substrate concentrations both in the presence and absence of inhibitors. The Ki values were obtained through Lineweaver–Burk double-reciprocal plots, where 1/V was plotted against 1/[S], allowing for graphical estimation based on the shift in intercepts.[47,48]

HUVEC cell line = assay: MTT cell viability assay on HUVEC; format: cell-based, human
Experimental: The cell line was cultured in DMEM-F12 medium (Gibco, MD, USA) supplemented with 10% fetal bovine serum (FBS) (Gibco, MD, USA) and 1% penicillin/streptomycin (Gibco, MD, USA) under a 5% CO2 humidified atmosphere at 37 °C.
The MTT proliferation test was conducted to determine the impact of the compounds on cell viability in the HUVEC cell line. The cells were seeded in 96-well plates (1 × 10^4 cells per well) and subsequently allowed to grow for 24 hours. […] Following the treatment duration, MTT solution was added at a final concentration of 0.1 mg mL^−1, and the cells were incubated for 4 hours at 37 °C. Then, the supernatant was discarded, DMSO was added to allow the formazan crystals to dissolve, and the plates were incubated in the dark at room temperature for 30 minutes. The absorbance at 570 nm was determined using a microplate reader (BioTek Instruments, Inc., USA). All cytotoxicity assays were done in three times (three independent experiments). IC50 values are given as mean ± standard deviation (SD). […] The error bars in all the figures show the experimental SD.

[2] = biological target: T2, BChE isolated from equine serum (Equus caballus, UniProt P81908); assay: BChE inhibition assay (modified Ellman's colorimetric method, Lineweaver–Burk Ki); format: biochemical; settings: for Ki: 0.1 M Tris–HCl pH 8.0, substrate butyrylthiocholine iodide; for BChE Ki, fold more inhibitory than tacrine: relative to tacrine Ki; for BChE Ki, fold more inhibitory than donepezil: relative to donepezil Ki
T2 construct: BChE isolated from equine serum (≥10 U per mg protein); purchased Sigma-Aldrich (St. Louis, MO, USA); host or cells: equine serum
Experimental: AChE derived from Electrophorus electricus (electric eel; specific activity: 200–1000 U per mg protein) and BChE isolated from equine serum (≥10 U per mg protein) were obtained from Sigma-Aldrich (St. Louis, MO, USA). Acetylthiocholine chloride (ATChCl) and butyrylthiocholine iodide (BTChI) were utilized as the respective substrates for AChE and BChE assays. All reagent solutions were freshly prepared in 0.1 M Tris–HCl buffer at pH 8.0. The enzymatic activities were assessed spectrophotometrically following a modified protocol based on Ellman's colorimetric method.[46] […] To determine the inhibition constant (Ki), a range of inhibitor concentrations was tested under steady-state conditions. Enzyme kinetic parameters were derived by measuring initial velocities at varying substrate concentrations both in the presence and absence of inhibitors. The Ki values were obtained through Lineweaver–Burk double-reciprocal plots, where 1/V was plotted against 1/[S], allowing for graphical estimation based on the shift in intercepts.[47,48]

[3] = Homo sapiens, HUVEC, 24 h, MTT, 24 hours treatment, mean ± SD, n = 3, read-out: HUVEC IC50

T2 sequence (P81908 whole entry): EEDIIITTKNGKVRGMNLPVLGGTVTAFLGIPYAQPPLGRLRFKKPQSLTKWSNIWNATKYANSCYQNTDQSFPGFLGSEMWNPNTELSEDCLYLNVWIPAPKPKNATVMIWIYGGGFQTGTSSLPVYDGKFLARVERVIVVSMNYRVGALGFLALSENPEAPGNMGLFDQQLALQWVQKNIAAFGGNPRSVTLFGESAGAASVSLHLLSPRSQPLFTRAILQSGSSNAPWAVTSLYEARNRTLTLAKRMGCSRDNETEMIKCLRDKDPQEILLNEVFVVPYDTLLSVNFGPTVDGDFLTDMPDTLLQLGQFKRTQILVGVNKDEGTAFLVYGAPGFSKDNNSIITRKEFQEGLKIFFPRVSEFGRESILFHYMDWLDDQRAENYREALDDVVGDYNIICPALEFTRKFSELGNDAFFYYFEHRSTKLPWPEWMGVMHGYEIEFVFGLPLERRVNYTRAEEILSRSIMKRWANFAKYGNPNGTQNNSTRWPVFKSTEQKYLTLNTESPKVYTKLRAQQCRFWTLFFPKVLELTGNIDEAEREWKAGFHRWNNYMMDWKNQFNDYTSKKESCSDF
T1 sequence (O42275 24-633): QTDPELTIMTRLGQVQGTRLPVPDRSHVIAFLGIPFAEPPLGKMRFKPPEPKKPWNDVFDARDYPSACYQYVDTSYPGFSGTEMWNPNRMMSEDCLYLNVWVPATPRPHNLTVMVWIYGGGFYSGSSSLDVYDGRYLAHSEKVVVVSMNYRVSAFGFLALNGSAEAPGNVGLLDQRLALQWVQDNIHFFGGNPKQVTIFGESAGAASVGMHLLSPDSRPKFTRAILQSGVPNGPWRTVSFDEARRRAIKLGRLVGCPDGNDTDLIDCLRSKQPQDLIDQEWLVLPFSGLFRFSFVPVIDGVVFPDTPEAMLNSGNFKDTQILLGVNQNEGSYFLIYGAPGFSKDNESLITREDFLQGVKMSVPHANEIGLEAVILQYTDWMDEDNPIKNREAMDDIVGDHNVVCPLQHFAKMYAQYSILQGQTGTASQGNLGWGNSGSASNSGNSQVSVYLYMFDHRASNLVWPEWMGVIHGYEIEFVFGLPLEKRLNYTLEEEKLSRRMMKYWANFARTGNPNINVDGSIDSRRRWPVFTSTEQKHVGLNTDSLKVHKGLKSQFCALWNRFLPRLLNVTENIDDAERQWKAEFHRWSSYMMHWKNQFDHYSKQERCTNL

Structure (SMILES) | Ki ([1]; Lineweaver–Burk plots) [µM] | Selectivity (BChE/AChE) [1] | Ki ([2]; Lineweaver–Burk plots) [µM] | further results
O=C(c1ccc2nc(-c3ccc[nH]3)oc2c1)N1CCOCC1 [I] |  |  |  | IC50 (BChE): 0.099 µM; IC50 (AChE): 0.0578 µM
C=CCN1C(=O)/C(=C/c2cc(CN3CCN(C(=O)OCC)CC3)c(O)c(OC)c2)SC1=S [Compound 4, (Z)-3-Allyl-5-{4-hydroxy-3-methoxy-5-[(4-ethoxycarbonylpiperazin-1-yl)methyl]benzylidene}-2-thioxothiazolidin-4-one] | 0.0287 ± 0.00612 | 1.15 | 0.033 ± 0.00921 | IC50 (HUVEC cell line; [3]): 73.13 ± 0.5 µM
C=CCN1C(=O)/C(=C/c2cc(CN3CCOCC3)c(O)c(OCC)c2)SC1=S [Compound 8, (Z)-3-Allyl-5-[4-hydroxy-3-ethoxy-5-(morpholinomethyl)benzylidene]-2-thioxothiazolidin-4-one] | 0.0851 ± 0.00845 | 1.42 | 0.121 ± 0.0127 | 
COc1cc(/C=N\NC(=O)c2ccncc2)cc(CN2CCN(c3ccccc3)CC2)c1O [V] |  |  |  | IC50 (AChE): 0.23 µM
C=CCN1C(=O)/C(=C/c2cc(CN3CCCC(C)C3)c(O)c(OC)c2)SC1=S (stereo not shown) [Compound 5, (Z)-3-Allyl-5-{4-hydroxy-3-methoxy-5-[(3-methylpiperidin-1-yl)methyl]benzylidene}-2-thioxothiazolidin-4-one] | 0.0953 ± 0.0112 | 0.93 | 0.0887 ± 0.0155 | 
C=CCN1C(=O)/C(=C/c2cc(CN3CCN(c4ccccc4)CC3)c(O)c(OCC)c2)SC1=S [Compound 10, (Z)-3-Allyl-5-{4-hydroxy-3-ethoxy-5-[(4-phenylpiperazin-1-yl)methyl]benzylidene}-2-thioxothiazolidin-4-one] | 0.0186 ± 0.00205 | 1.16 | 0.0216 ± 0.00523 | IC50 (HUVEC cell line; [3]): 47.4 ± 0.67 µM
C=CCN1C(=O)/C(=C/c2cc(Br)c(O)c(CN3CCOCC3)c2)SC1=S [Compound 12, (Z)-3-Allyl-5-[3-bromo-4-hydroxy-5-(morpholinomethyl)benzylidene]-2-thioxothiazolidin-4-one] | 0.043 ± 0.00877 |  | 0.0972 ± 0.0179 | 
C=CCN1C(=O)/C(=C/c2cc(CN3CCN(C)CC3)c(O)c(OC)c2)SC1=S [Compound 2, (Z)-3-Allyl-5-{4-hydroxy-3-methoxy-5-[(4-methylpiperazin-1-yl)methyl]benzylidene}-2-thioxothiazolidin-4-one] | 0.046 ± 0.00521 | 1.11 | 0.0509 ± 0.0104 | 
CN(C)c1ccc(/C=C2\SC(=S)N(CC(=O)N3CCOCC3)C2=O)cc1 [VII] |  |  |  | IC50 (AChE; rhodanine derivatives): 52.3 µM
O=C(CCN1CCN(Cc2ccc(F)cc2)CC1)n1c2ccccc2c2ccccc21 [III] |  |  |  | IC50 (AChE): 5.7 µM
C=CCN1C(=O)/C(=C/c2cc(CN3CCN(c4ccccc4)CC3)c(O)c(OC)c2)SC1=S [Compound 3, (Z)-3-Allyl-5-{4-hydroxy-3-methoxy-5-[(4-phenylpiperazin-1-yl)methyl]benzylidene}-2-thioxothiazolidin-4-one] | 0.062 ± 0.0136 | 1.09 | 0.0677 ± 0.0114 | 
C=CCN1C(=O)/C(=C/c2cc(CN3CCOCC3)c(O)c(CN3CCOCC3)c2)SC1=S [Compound 13, (Z)-3-Allyl-5-[4-hydroxy-3,5-bis(morpholinomethyl)benzylidene]-2-thioxothiazolidin-4-one] | 0.0265 ± 0.00921 |  | 0.112 ± 0.0235 | 
C=CCN1C(=O)/C(=C/c2cc(CN3CCN(C(=O)OCC)CC3)c(O)c(OCC)c2)SC1=S [Compound 9, (Z)-3-Allyl-5-{4-hydroxy-3-ethoxy-5-[(4-ethoxycarbonylpiperazin-1-yl)methyl]benzylidene}-2-thioxothiazolidin-4-one] | 0.0315 ± 0.00515 | 1.29 | 0.0405 ± 0.00663 | 
C=CCN1C(=O)/C(=C/c2cc(CN3CCOCC3)c(O)c(OC)c2)SC1=S [Compound 1, (Z)-3-Allyl-5-[4-hydroxy-3-methoxy-5-(morpholinomethyl)benzylidene]-2-thioxothiazolidin-4-one] | 0.0576 ± 0.0116 | 0.93 | 0.0536 ± 0.00887 | BChE Ki, fold more inhibitory than tacrine [2]: more than 3.16 fold
O=C(CN1C(=O)CSC1=S)Nc1ccc([N+](=O)[O-])cc1 [VI] |  |  |  | IC50 (BChE; rhodanine derivatives): 7.9 µM; IC50 (AChE; rhodanine derivatives): 30.8 µM
c1ccc2cc(-c3nc4ccccn4c3CN3CCOCC3)ccc2c1 [II] |  |  |  | IC50 (BChE): 0.0255 µM; IC50 (AChE): 0.0126 µM
C=CCN1C(=O)/C(=C/c2cc(CN3CCc4ccccc4C3)c(O)c(OCC)c2)SC1=S [Compound 11, (Z)-3-Allyl-5-{3-[(3,4-dihydroisoquinolin-2(1H)-yl)methyl]-4-hydroxy-5-ethoxybenzylidene}-2-thioxothiazolidin-4-one] | 0.0127 ± 0.00196 |  | 0.0251 ± 0.00641 | form of inhibition of AChE ([1]; Lineweaver–Burk plots): competitive; IC50 (HUVEC cell line; [3]): 69.14 ± 0.59 µM; BChE Ki, fold more inhibitory than donepezil [2]: > 2.49 fold; BChE Ki, fold more inhibitory than tacrine [2]: over 6.75 fold
O=C(O)c1ccc(/C=N/n2c(CN3CCN(c4ncccn4)CC3)nc3ccccc3c2=O)c(C(=O)O)c1 [IV] |  |  |  | IC50 (BChE): 8.65 µM; IC50 (AChE): 9.99 µM
C=CCN1C(=O)/C(=C/c2cc(CN3CCN(c4ncccn4)CC3)c(O)c(OC)c2)SC1=S [Compound 7, (Z)-3-Allyl-5-(4-hydroxy-3-methoxy-5-{[4-(pyrimidin-2-yl)piperazin-1-yl]methyl}benzylidene)-2-thioxothiazolidin-4-one] | 0.0254 ± 0.00945 | 1.14 | 0.029 ± 0.00754 | IC50 (HUVEC cell line; [3]): 43.3 ± 0.47 µM; BChE Ki, fold more inhibitory than tacrine [2]: 5.85 fold
C=CCN1C(=O)/C(=C/c2cc(CN3CCc4ccccc4C3)c(O)c(OC)c2)SC1=S [Compound 6, (Z)-3-Allyl-5-{3-[(3,4-dihydroisoquinolin-2(1H)-yl)methyl]-4-hydroxy-5-methoxybenzylidene}-2-thioxothiazolidin-4-one] | 0.0136 ± 0.00143 | 0.77 | 0.0104 ± 0.00133 | IC50 (HUVEC cell line; Homo sapiens, HUVEC, 24 h, read-out: HUVEC IC50, MTT, 24 hours treatment, mean ± SD, n = 3): 79.1 µM; IC50 (HUVEC cell line; MTT, 24 hours treatment, mean ± SD, n = 3, read-out: HUVEC IC50): 79.71 ± 0.52 µM; form of inhibition of BChE ([2]; Lineweaver–Burk plots): competitive; BChE Ki, fold more inhibitory than donepezil [2]: 5.98 fold; BChE Ki, fold more inhibitory than tacrine [2]: 16.24 fold
